Data as given in a compilation of properties of binary mixtures (doi:10.1021/acs.iecr.6b02875).

Test: xn = mol fraction of the nth substance listed
Conditions: 101 kPa; for electrical conductivity: 298.15 K

CCCOCCn1cc[n+](C)c1.O=S(=O)([N-]S(=O)(=O)C(F)(F)F)C(F)(F)F + O
x1 = 0.8308
Conditions	viscosity [mPa·s]
293 K	48
303 K	31.6
313 K	21.9
323 K	15.9
333 K	12
343 K	9.2
353 K	7.3

Conditions	electrical conductivity [S/m]
x1 = 0.8308	0.404

CCOCC[n+]1ccn(C)c1.O=S(=O)([N-]S(=O)(=O)C(F)(F)F)C(F)(F)F + O
x1 = 0.8421
Conditions	viscosity [mPa·s]
293 K	42.4
303 K	27.8
313 K	19.5
323 K	14.2
333 K	10.7
343 K	8.3
353 K	6.5

Conditions	electrical conductivity [S/m]
x1 = 0.8421	0.499

CCOCn1cc[n+](C)c1.O=S(=O)([N-]S(=O)(=O)C(F)(F)F)C(F)(F)F + O
x1 = 0.8413
Conditions	viscosity [mPa·s]
283 K	81.6
293 K	48.9
298.1 K	38.8
303 K	31.4
313 K	21.6
323 K	15.7
343 K	9.1
353 K	7.2

Conditions	electrical conductivity [S/m]
x1 = 0.8413	0.504

COCCCn1cc[n+](C)c1.O=S(=O)([N-]S(=O)(=O)C(F)(F)F)C(F)(F)F + O
x1 = 0.8318
Conditions	viscosity [mPa·s]
293 K	49.6
298.1 K	39.7
303 K	32.1
313 K	22.1
323 K	15.9
333 K	11.8
343 K	9.1
353 K	7.1

Conditions	electrical conductivity [S/m]
x1 = 0.8318	0.44

COCC[n+]1ccn(C)c1.O=S(=O)([N-]S(=O)(=O)C(F)(F)F)C(F)(F)F + O
x1 = 0.838
Conditions	viscosity [mPa·s]
293 K	41.5
298.1 K	33.3
303 K	27.4
313 K	19.4
323 K	14.2
333 K	10.7
343 K	8.4
353 K	6.7

COC[n+]1ccccc1.O=S(=O)([N-]S(=O)(=O)C(F)(F)F)C(F)(F)F + O
x1 = 0.8484
Conditions	viscosity [mPa·s]
283 K	75.6
293 K	46.3
313 K	21.7
323 K	15.8
343 K	9.4
353 K	7.5

COC[n+]1ccn(C)c1.O=S(=O)([N-]S(=O)(=O)C(F)(F)F)C(F)(F)F + O
x1 = 0.8281
Conditions	viscosity [mPa·s]
293 K	48.3
298.1 K	38.4
303 K	31.1
313 K	21.4
323 K	15.4
333 K	11.4
343 K	8.8
353 K	7

Conditions	electrical conductivity [S/m]
x1 = 0.8281	0.594
